In brackets after ≈: the same amount, converted by molar mass. Read-outs that look alike come from different tables or passages of the source.
Legend:
[1] = tested on: Freund's Adjuvant-induced arthritis in Wistar Albino rats; test: Freund's adjuvant-induced arthritis, paw edema; type: in vivo; conditions: 10 mg/kg daily oral for 30 days; edema 13 days after Freund's Adjuvant
Description: The Wistar Albino rats were divided into four groups with […] each group. The two treatment groups, each containing 6 animals, were orally supplemented with one of the two analogs namely glycinate of AKBA (10) or piperazine amide of AKBA (23) in 1% carbomethylcellulose (CMC) at a daily dose of 10 mg/kg for 30 days. The control group of animals received same volume of 1% CMC orally and a positive control group received 10 mg/kg daily dose of prednisolone for direct comparison. Following the 30 day treatment and one hour after the last dose all the animals were challenged with 0.1 mL of 1% solution of Freund's Adjuvant through a subcutaneous injection in the sub-plantar region of left hind paw. The paw volume was measured using a plethymograph. The difference between the paw volumes measured before and 13 days after the Freund's Adjuvant injection was taken as edema volume. The percentage inhibition was calculated by comparing the mean edema of the control group and treatment groups.

MCF-7 = test: MTT cell proliferation assay, MCF-7; type: cell-based, human; conditions: for Inhibition of cell proliferation MCF-7 (IC50): three days
Description: (§1) MTT [3-(4,5-dimethylthiazol-2-yl)-2,5-diphenyltetrazolium bromide] incorporation based cell proliferation assay was performed as described previously (Reference). The cytotoxic efficacy of some analogs was evaluated in different cell lines by MTT cell proliferation assay kit (Roche Applied Sciences, Germany). The assay was carried out according to the instruction provided by the vendor. Briefly, in brief, equal numbers of cells was plated in 96-well flat-bottomed plates in 100 μl of medium and were exposed to different analogs selected from 1 to 63 at various concentrations up to 10 μg/ml for a period of three days. Vehicle control culture wells received only a maximum of 0.5% DMSO. Thereafter, 0.5 mg/ml of MTT reagent was added to each well and the microplate was incubated further for 4 h at 37° C. in presence of 5% CO2. Finally, the cells were solubilized by adding solubilizing solution and allowed to incubate at 37° C. overnight. After complete solubilization of the formazan crystals the absorbance was read at 540 nm in a microplate reader (BioRad, USA). The results (mean OD±SD) obtained from quadruplicate wells were used in calculation to determine the inhibition of cell proliferation (50% of inhibitory concentration, IC50) of the test compounds.
(§2) The cytotoxic properties of some analogs were evaluated by MTT incorporation assay. The methodology of the assay procedure was the same as mentioned in example 41.

PC3M = test: Cytotoxicity MTT assay, PC3M; type: cell-based, human; set-up: minimum inhibitory concentration (MIC) PC3M: unit not given here; conditions: for minimum inhibitory concentration (MIC) PC3M: MTT assay
Jurkat = type: cell-based, human; set-up: minimum inhibitory concentration (MIC) Jurkat: unit not given here; conditions: for minimum inhibitory concentration (MIC) Jurkat: MTT assay
Description: as §1, §2

HePG2 = test: Cytotoxicity MTT assay, HePG2; type: cell-based, human; set-up: unit not given here
Description: as §1, §2

MDA-MB-231 = test: MTT cell proliferation assay, MDA-MB-231; type: cell-based, human; conditions: for IC50 / inhibition at 10 µg/mL: Homo sapiens, MDA-MB-231; for Inhibition of cell proliferation MDA-MB-231 (IC50): three days
Description: as §1, §2

potato 5-lipoxygenase = test: 5-Lipoxygenase enzyme inhibitory activity; type: biochemical
Description: 5-Lipoxygenase enzyme inhibitory activity was measured using the method of Schewe et al. (Adv Enzymol, Vol 58, 191-272, 1986), modified by Reddanna et. al., (Methods of Enzymology, Vol 187, 268-277, 1990). The assay mixture contained 80 μM linoleic acid and sufficient amount of potato 5-lipoxygenase in 50 mM phosphate buffer (pH 6.3). The reaction was initiated by the addition of enzyme buffer mix to linoleic acid and the enzyme activity was monitored as the increase in absorbance at 234 nm. The reaction was monitored for 120 sec and the inhibitory potential of the test substances (29, 31, 33, 34, 35, 36, 39, 40, 43, 44, 46, 47, 48, 49, 50, 54, 57, 59, 62 & 63) was measured by incubating various concentrations of test substances two minutes before the addition of linoleic acid. All assays were performed three times. Percentage inhibition was calculated by comparing the slope of the curve obtained for test substances with that of the control.

A375 = test: MTT cell proliferation assay, A375; type: cell-based, human; conditions: Table 2; three days
Description: as §1

B16 = test: MTT cell proliferation assay, B16; type: cell-based, mouse; conditions: Table 2; for Inhibition of cell proliferation B16 (IC50): three days
Description: as §1

A549 = test: MTT cell proliferation assay, A549; type: cell-based, human; conditions: Table 2; for Inhibition of cell proliferation A549 (IC50): three days
Description: as §1

[2] = tested on: B16 F0 melanoma xenograft; test: B16 F0 melanoma xenograft model; type: in vivo, C57B6J mice; conditions: 75 mg/kg daily intra-peritoneal, twelve days
Description: In vivo efficacy of LI-51255 against melanoma growth was evaluated in B16 F0 melanoma xenograft model of C57B6J mice. C57B6J mice of 6 weeks age (body weight 18-22 g) were purchased from National Institute of Nutrition (NIN), Hyderabad (India). Animals study protocols were approved by Institutional Ethics Committee (IAEC). All the studies were performed in compliance with the Committee for the Purpose of Control and Supervision of Experiments on Animals (CPCSEA) guidelines and OECD guidelines. Animals were allowed free access to standard feed and provided charcoal filtered and UV exposed water ad libitum. The animals were maintained at a controlled temperature (24-26° C.), humidity (45-70%), and 12 h/12 h of light/dark cycle.
To induce the melanoma tumor formation, sub-confluent B16F0 cells were harvested by brief trypsinization and 1×10^6 cells were injected subcutaneously in 0.2 mL phosphate-buffered saline. Drug treatment was started after development of palpable tumors (3-5 days after implantation of the cells). Drugs were prepared in phosphate-buffered saline (10% DMSO, v/v) and either 75 mg/kg of DTIC or different doses of LI-51255 (10 or 20 mg/kg) was administered daily through intra-peritoneal route. Vehicle treated control animals received only 10% DMSO in phosphate buffered saline. After twelve days of treatment, the animals were sacrificed by CO2 inhalation and tumors were excised and weighed.

Inhibition of cell proliferation MCF-7 (IC50) (MCF-7; Table 2) [µg/mL] | % inhibition at 10 μg/ml (potato 5-lipoxygenase) [%] | % inhibition at 25 μg/ml (potato 5-lipoxygenase) [%] | Inhibition of cell proliferation A375 (IC50) (A375) [µg/mL] | Inhibition of cell proliferation B16 (IC50) (B16) [µg/mL] | Inhibition of cell proliferation A549 (IC50) (A549) [µg/mL] | Inhibition of cell proliferation MDA-MB-231 (IC50) (MDA-MB-231; Table 2) [µg/mL] | IC50 values MCF-7 (MCF-7; Table 4) | SMILES | minimum inhibitory concentration (MIC) PC3M (PC3M) | minimum inhibitory concentration (MIC) Jurkat (Jurkat) | minimum inhibitory concentration (MIC) HePG2 (HePG2) | further results
– | – | – | – | – | – | – | – | C[C@@H]1CC[C@]2(C)CC[C@]3(C)C(=CC(=O)C4[C@@]5(C)CC[C@@H](OC(=O)CN)[C@](C)(C(=O)O)C5CC[C@]43C)C2[C@H]1C (some centres unmarked) [Analog 10] | 50 | 50 | >150 | inhibition of paw edema [1]: 12%; IC50 (MCF-7; Homo sapiens, MCF7, Table 4): 26.9 µg/mL (≈ 51 µM); IC50 (MDA-MB-231; Table 4): 19.5 µg/mL (≈ 36.9 µM)
– | – | – | – | – | – | – | – | C[C@H](N)C(=O)O[C@@H]1CC[C@@]2(C)C(CC[C@]3(C)C2C(=O)C=C2C4[C@@H](C)[C@H](C)CC[C@]4(C)CC[C@]23C)[C@@]1(C)C(=O)O (some centres unmarked) [Analog 11] | 30 | 50 | 100-150 | IC50 (MCF-7; Homo sapiens, MCF7, Table 4): 33.3 µg/mL (≈ 61.5 µM); IC50 (MDA-MB-231; Table 4): 28.9 µg/mL (≈ 53.4 µM)
12.5 | 22.78 | 54.18 | 3.53 | 4.35 | 6.83 | 4.98 | – | CC(=O)O[C@@H]1CC[C@@]2(C)C(CC[C@]3(C)C2C(=O)C=C2C4[C@@H](C)[C@H](C)CC[C@]4(C)CC[C@]23C)[C@@]1(C)C(=O)NCCNC=O (some centres unmarked) [Analog 48] | – | – | – | Percentage Inhibition of cell proliferation MDA-MB-231 (MDA-MB-231; Table 4, 10 μg/ml): 8.8% at 10 μg/ml
13.7 | 16.31 | 29.40 | 4.12 | 3.84 | 10.5 | 6.38 | IC50 at 13.7 μg/ml | CC(=O)O[C@@H]1CC[C@@]2(C)C(CC[C@]3(C)C2C(=O)C=C2C4[C@@H](C)[C@H](C)CC[C@]4(C)CC[C@]23C)[C@@]1(C)C(=O)NCCCCN (some centres unmarked) [Analog 34] | – | – | – | IC50 values MDA-MB-231 (MDA-MB-231; Table 4): IC50 at 6.38 μg/ml
– | – | – | – | – | – | – | – | COc1cc(C(=O)O[C@@H]2CC[C@@]3(C)C(CC[C@]4(C)C3C(=O)C=C3C5[C@@H](C)[C@H](C)CC[C@]5(C)CC[C@]34C)[C@@]2(C)C(=O)O)cc(O)c1O (some centres unmarked) [Analog 3] | 30 | 125 | 150 | cytotoxicity against PC3M (PC3M): significantly more potent
– | – | – | – | – | – | – | – | CN(C)/N=N/c1[nH]cnc1C(N)=O [DTIC, Dacarbazine, reference compound] | – | – | – | % reduction of tumor burden (w.r.t control) [2]: 33.613%; Average weight of tumor [2]: 4.175 gm; % reduction of tumor burden (w.r.t control) ([2]; listed as Dacarbazine): 33.6%
– | 24.66 | 52.98 | – | 9.1 | – | – | – | CC(=O)O[C@@H]1CC[C@@]2(C)C(CC[C@]3(C)C2C(=O)C=C2C4[C@@H](C)[C@H](C)CC[C@]4(C)CC[C@]23C)[C@@]1(C)C(=O)NCCCCCCN (some centres unmarked) [Analog 33] | – | – | – | Inhibition of cell proliferation MCF-7, % at 10 ug/ml (MCF-7; Table 2, 10 ug/ml): 36% at 10; Percentage Inhibition of cell proliferation MCF-7 (MCF-7; Table 4, 10 μg/ml): 36% at 10 μg/ml; Inhibition of cell proliferation A549, % at 10 ug/ml (A549; 10 ug/ml): 24% at 10
8.7 | 17.83 | 34.40 | 2.75 | 2.44 | 4.78 | 3.4 | IC50 at 8.7 μg/ml | C[C@@H]1CC[C@]2(C)CC[C@]3(C)C(=CC(=O)C4[C@@]5(C)CC[C@@H](O)[C@](C)(C(=O)N6CCOCC6)C5CC[C@]43C)C2[C@H]1C (some centres unmarked) [Analog 36] | – | – | – | IC50 values MDA-MB-231 (MDA-MB-231; Table 4): IC50 at 3.4 μg/ml
9.7 | 24.92 | 52.48 | 2.76 | 2.82 | 5.86 | 5.14 | IC50 at 9.7 μg/ml | CC(=O)O[C@@H]1CC[C@@]2(C)C(CC[C@]3(C)C2C(=O)C=C2C4[C@@H](C)[C@H](C)CC[C@]4(C)CC[C@]23C)[C@@]1(C)C(=O)NCCCCCCCN (some centres unmarked) [Analog 35] | – | – | – | IC50 values MDA-MB-231 (MDA-MB-231; Table 4): IC50 at 5.14 μg/ml
– | 18.57 | 36.73 | – | – | – | – | – | CC(=O)O[C@@H]1CC[C@@]2(C)C(CC[C@]3(C)C2C(=O)C=C2C4[C@@H](C)[C@H](C)CC[C@]4(C)CC[C@]23C)[C@@]1(C)C(=O)N(C)C (some centres unmarked) [Analog 31] | – | – | – | inhibition at 10 µg/mL (B16; Mus musculus, B16, 10 ug/ml): 10%; inhibition at 10 µg/mL (A549; Homo sapiens, A549, 10 ug/ml): 17%; inhibition at 10 µg/mL (MDA-MB-231; Table 2, 10 ug/ml, read-out: Inhibition of cell proliferation MDA-MB-231, % at 10 ug/ml): 46%; inhibition at 10 µg/mL (MDA-MB-231; Table 4, 10 μg/ml, read-out: Percentage Inhibition of cell proliferation MDA-MB-231): 46%
– | – | – | – | – | – | – | – | CC(=O)O[C@@H]1CC[C@@]2(C)C(CC[C@]3(C)C2C(=O)C=C2C4[C@@H](C)[C@H](C)CC[C@]4(C)CC[C@]23C)[C@@]1(C)C(=O)NN (some centres unmarked) [Analog 20] | 10 | 50 | 40 | inhibition at 10 µg/mL (MCF-7; Homo sapiens, MCF7, Table 4, 10 μg/ml, read-out: Percentage Inhibition of cell proliferation MCF-7): 44%; cytotoxicity against PC3M (PC3M): significantly more potent
– | – | – | – | – | – | – | – | C[C@]12C=CC(=O)C=C1CC[C@@H]1[C@@H]2[C@@H](O)C[C@@]2(C)[C@H]1CC[C@]2(O)C(=O)CO [prednisolone, reference compound] | – | – | – | inhibition of paw edema [1]: 16.8%

SMILES | Inhibition of cell proliferation MCF-7 (IC50) (MCF-7; Table 2) [µg/mL] | % inhibition at 10 μg/ml (potato 5-lipoxygenase) [%] | % inhibition at 25 μg/ml (potato 5-lipoxygenase) [%] | Inhibition of cell proliferation A375 (IC50) (A375) [µg/mL] | Inhibition of cell proliferation B16 (IC50) (B16) [µg/mL] | Inhibition of cell proliferation A549 (IC50) (A549) [µg/mL] | Inhibition of cell proliferation MDA-MB-231 (IC50) (MDA-MB-231; Table 2) [µg/mL] | IC50 values MCF-7 (MCF-7; Table 4) | minimum inhibitory concentration (MIC) PC3M (PC3M) | minimum inhibitory concentration (MIC) Jurkat (Jurkat) | minimum inhibitory concentration (MIC) HePG2 (HePG2) | further results
CC(=O)OC1CC[C@@]2(C)C(CC[C@]3(C)C2C(=O)C=C2C4[C@@H](C)[C@H](C)CC[C@]4(C)CC[C@]23C)[C@@]1(C)C(N)=O (some centres unmarked) [Analog 19] | – | – | – | – | – | – | – | IC50 at 30.05 μg/ml | >150 | 10 | >150 | cytotoxicity against leukemia cells (Jurkat): highly potent selectively; Percentage Inhibition of cell proliferation MDA-MB-231 (MDA-MB-231; Table 4, 10 μg/ml): 38.72% at 10 μg/ml

Reference: patent US8748598B2, “Analogs of 3-O-acetyl-11-keto-beta-boswellic acid” (Laila Nutraceuticals, priority 2004, dated 2014)
